Measured values reported in patent US20130273092A1 (priority 2010, published 2013).

Experiments:
Format in all cases: cell-based, C57BL/6 mice
[1] = test system: CD8 cells
[2] = test system: Vb6-CD8 clone
[3] = test system: Vb6+ CD8 clone

Row | Substance | TNF-α and IFN-γ expression [1] | response pattern (IFN-γ and proliferation) [2] | IFN-γ by ELISA [3] | proliferation (3H-thymidine incorporation, stimulation index) [3]
1 | H-SVIGFIQRM-OH [SEQ ID NO: 3] | stimulated TNF-α and IFN-γ expression from nearly as many CD8 cells as did the polyclonal stimulus anti-CD3 |  |  | 
2 | H-VAHSVIGFIQRMFSE-OH [YopE peptide number 14] |  | identical response pattern | specifically produced IFN-γ | proliferated
